In PMC8042605 (The Journal of General Physiology, 2021):
Blank lines part the entries; values can stand above or below the compound they belong to.

Assays:
Assay in all cases: whole-cell patch clamp in transfected CHOK1 cells
Format in all cases: cell-based
Nav1.4 [1] = molecular target: Nav1.4 (Homo sapiens, UniProt P35499, F1586A)
Nav1.4 [2] = molecular target: Nav1.4 (Homo sapiens, UniProt P35499, F432W/I1280W/I1583W/V787W)
Nav1.4 [3] = molecular target: T1, Nav1.4 (Homo sapiens, UniProt P35499); conditions: CHO-K1, read-out: % block at 350 μM
T1 sequence (P35499 whole entry): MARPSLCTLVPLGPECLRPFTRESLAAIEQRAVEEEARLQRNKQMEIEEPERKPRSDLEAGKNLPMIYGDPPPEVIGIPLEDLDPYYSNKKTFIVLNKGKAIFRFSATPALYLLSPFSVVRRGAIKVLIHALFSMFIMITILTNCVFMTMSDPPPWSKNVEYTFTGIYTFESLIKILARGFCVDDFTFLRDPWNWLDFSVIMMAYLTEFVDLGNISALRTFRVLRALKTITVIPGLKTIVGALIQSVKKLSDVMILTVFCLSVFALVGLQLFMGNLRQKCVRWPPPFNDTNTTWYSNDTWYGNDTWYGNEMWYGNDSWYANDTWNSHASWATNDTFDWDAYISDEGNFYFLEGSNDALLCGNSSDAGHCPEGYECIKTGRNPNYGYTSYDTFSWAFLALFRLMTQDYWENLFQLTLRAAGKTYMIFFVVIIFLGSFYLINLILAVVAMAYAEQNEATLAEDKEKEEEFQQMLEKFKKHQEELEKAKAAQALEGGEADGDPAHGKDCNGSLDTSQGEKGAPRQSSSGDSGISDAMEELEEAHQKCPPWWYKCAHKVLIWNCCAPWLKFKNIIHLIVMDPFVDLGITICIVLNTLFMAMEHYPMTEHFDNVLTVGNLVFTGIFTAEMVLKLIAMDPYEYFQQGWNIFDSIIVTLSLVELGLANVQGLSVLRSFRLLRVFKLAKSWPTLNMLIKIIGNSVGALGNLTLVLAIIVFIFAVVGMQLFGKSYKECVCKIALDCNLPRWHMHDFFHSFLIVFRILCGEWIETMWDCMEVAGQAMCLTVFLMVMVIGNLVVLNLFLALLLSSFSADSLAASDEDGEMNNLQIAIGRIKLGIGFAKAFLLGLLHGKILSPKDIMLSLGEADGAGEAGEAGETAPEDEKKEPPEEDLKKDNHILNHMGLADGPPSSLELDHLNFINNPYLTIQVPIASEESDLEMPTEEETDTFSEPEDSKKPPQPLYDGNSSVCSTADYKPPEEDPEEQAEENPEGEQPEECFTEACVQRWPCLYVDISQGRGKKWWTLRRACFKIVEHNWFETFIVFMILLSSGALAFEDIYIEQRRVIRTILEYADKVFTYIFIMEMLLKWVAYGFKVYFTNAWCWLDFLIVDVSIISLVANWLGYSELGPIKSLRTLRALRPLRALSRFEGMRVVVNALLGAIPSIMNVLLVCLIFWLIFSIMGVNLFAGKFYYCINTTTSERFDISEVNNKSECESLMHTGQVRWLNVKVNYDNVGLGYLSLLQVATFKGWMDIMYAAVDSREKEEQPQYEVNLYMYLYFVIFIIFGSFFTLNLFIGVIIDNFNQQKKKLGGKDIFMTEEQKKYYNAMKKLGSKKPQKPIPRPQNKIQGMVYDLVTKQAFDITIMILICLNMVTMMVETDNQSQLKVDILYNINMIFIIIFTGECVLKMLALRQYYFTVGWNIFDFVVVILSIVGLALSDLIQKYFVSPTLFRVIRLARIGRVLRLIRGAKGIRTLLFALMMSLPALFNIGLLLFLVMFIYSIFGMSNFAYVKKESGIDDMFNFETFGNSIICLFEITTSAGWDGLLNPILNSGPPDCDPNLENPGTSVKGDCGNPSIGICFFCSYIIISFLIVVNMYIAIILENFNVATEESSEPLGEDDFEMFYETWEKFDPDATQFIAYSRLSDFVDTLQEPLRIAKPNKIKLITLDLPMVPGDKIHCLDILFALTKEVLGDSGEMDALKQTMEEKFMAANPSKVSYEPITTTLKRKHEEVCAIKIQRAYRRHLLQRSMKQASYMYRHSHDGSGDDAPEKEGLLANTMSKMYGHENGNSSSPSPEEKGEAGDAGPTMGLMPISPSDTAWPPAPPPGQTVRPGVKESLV
T1 sequence (Q07699 19-218 partner): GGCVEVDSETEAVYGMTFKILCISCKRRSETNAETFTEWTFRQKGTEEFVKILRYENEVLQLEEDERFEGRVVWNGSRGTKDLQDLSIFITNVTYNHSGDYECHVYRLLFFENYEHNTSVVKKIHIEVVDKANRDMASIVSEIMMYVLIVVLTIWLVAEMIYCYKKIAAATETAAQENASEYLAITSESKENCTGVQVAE

Nav1.4 [4] = molecular target: T1, Nav1.4; conditions: CHO-K1, read-out: % block at 1.1 mM
[5] = CHO-K1, read-out: % block at 1.1 mM

Nav1.4 (Homo sapiens, UniProt P35499, F432W/I1280W/I1583W/V787W), sequence (P35499 whole entry F432W/V787W/I1280W/I1583W): as the sequence (P35499 whole entry) above, with F432W, V787W, I1280W, I1583W counted along it
Nav1.4 (Homo sapiens, UniProt P35499, F432W/I1280W/I1583W/V787W), sequence (Q07699 19-218 partner): as the sequence (Q07699 19-218 partner) above
Nav1.4 (Homo sapiens, UniProt P35499, F1586A), sequence (P35499 whole entry F1586A): as the sequence (P35499 whole entry) above, with F1586A counted along it
Nav1.4 (Homo sapiens, UniProt P35499, F1586A), sequence (Q07699 19-218 partner): as the sequence (Q07699 19-218 partner) above

Compound: C=C(C)[C@@H]1CCC(C)=C[C@H]1c1c(O)cc(CCCCC)cc1O [Cannabidiol]
- inhibition at 10 µM (Nav1.4 [1]; CHO-K1, read-out: % block at 10 μM): 25.3%

- inhibition at 350 µM (Nav1.4 [2]; CHO-K1, read-out: % block at 350 μM): 76.4%
- inhibition at 350 µM (Nav1.4 [3]): 64.6%
Compound: O=C(NCC1CCCCN1)c1cc(OCC(F)(F)F)ccc1OCC(F)(F)F (stereo not drawn) [flecainide]

- inhibition at 1100 µM (Nav1.4 [2]; [5]): 53.6%
- inhibition at 1100 µM (Nav1.4 [4]): 60.6%
- inhibition at 1100 µM (Nav1.4 [1]; [5]): 24.6%
Compound: CCN(CC)CC(=O)Nc1c(C)cccc1C [lidocaine]
